# Molecular target: T1, wild-type H-Ras protein (Homo sapiens, UniProt P01112)
# T1 construct: an endogenous wild-type K-Ras protein and wild-type H-Ras protein in HeLa cells; endogenous in cells; host or cells: HeLa cells
# Experiment: Degradation of endogenous wild-type H-Ras protein in HeLa cells, Western blot analysis
# Format: cell-based
# Settings: 48 hours after addition
# Procedure: HeLa cells were seeded in a 24-well plate at a cell density of 8×10^4 cells/well, and then cultured under conditions of 37° C. and 5 vol % CO2 for 16 hours.
# After 16 hours from cell seeding, TUS-007 was added to HeLa cells as follows. As a medium, a serum-free medium (37° C.) in which 1 mass % L-glutamine solution (Sigma-Aldrich) was added to D-MEM (high D-glucose, phenol red, sodium pyruvate (Wako Pure Chemical Industries, Ltd.)) was used. It is noted that the L-glutamine solution was added immediately before use. A DMSO solution containing TUS-007 was mixed with the medium so that the concentration of DMSO was 1 vol %, and added to each well at 500 μL/well, and cultured under conditions of 37° C. and 5 vol % CO2. As a control, DMSO was used.
# The medium was removed 48 hours after addition of TUS-007, and then PBS was added to wash the cells. […]
# After electrophoresis, proteins were transferred to a PVDF membrane (Immobion™-P, Millipore) under conditions of 100 V and 2 hours using a tank-type blotting device and a transfer buffer (25 mM Tris-HCl, 195 mM glycine, 0.01% SDS, 15% methanol). […] Subsequently, the membrane was treated with a chemiluminescence reagent Immobilon™ Western (Millipore), and then chemiluminescence was detected using a lumino image analyzer LAS-3000 (FUJIFILM Corporation). […]
# T1 sequence (P01112 whole entry): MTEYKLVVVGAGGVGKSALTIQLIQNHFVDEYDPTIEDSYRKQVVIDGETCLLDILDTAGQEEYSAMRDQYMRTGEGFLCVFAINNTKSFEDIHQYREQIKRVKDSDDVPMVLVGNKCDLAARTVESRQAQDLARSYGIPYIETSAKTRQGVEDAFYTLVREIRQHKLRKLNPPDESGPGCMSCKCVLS
structure (smiles),measurement,value
CC[C@@H](C)[C@H](NC(=O)CCCCCCNC(=O)[C@H](CC(C)C)NC(=O)CNC(=O)c1cc(Cl)ccc1Cl)C(=O)Nc1ccc2[nH]c(Cc3c[nH]c4ccccc34)nc2c1 [TUS-007],amount of endogenous wild-type H-Ras protein,reduced
